According to article PMC11912122, “Gut in Tube—Continuous Measurement of Metabolic Crosstalk between Cell Populations in Heterogeneous Samples by NMR Imaging” (Analytical Chemistry, 2025):
Square brackets hold non-standard residues; d marks the D form. Peptide text beside a SMILES is read from it. Phe(4-F) = N[C@@H](Cc1ccc(F)cc1)C(=O)O

Test system: Cocultures of colonocytes (Caco-2, HT29, T84, SW620)
Assay: Cell viability assay (MTT)
Format: cell-based, human
Conditions: peptide 1.6 mg/mL, 37 °C, 3 h, OD590, % viability vs control, n=3
Experimental: Individual cell lines (Caco-2, HT29, T84, and SW620) were grown from frozen stocks, prepared at ca. 1 million/mL. Cells were seeded in a T-75 tissue culture flask, passaged once, and matured to ca. 10 million/mL in a T-175 flask in complete media. Cells were rinsed twice with Ca^2+/Mg^2+-free PBS (25 mL, CAS D8537), trypsinized, the trypsin deactivated with P/S-free complete media, all four lineages mixed in a 1:1:1:1 ratio, pelleted (300 rcf, 5 min), and resuspended in alginate (sodium alginate, CAS 9005–38–3, 1% w/v in P/S-free complete media). The cell suspension was extruded through a 200 μL pipet tip dropwise into cold CaCl2 (0.3 M in phosphate-buffered saline, PBS, CAS D8662, 15 °C) under stirring (100 r.p.m.). The cell spheres (Figures S1 and S2, Supporting Information (SI)) were removed from the CaCl2 solution, washed, and stored in P/S-free complete media before further use.
The effect of the peptide on cell viability was measured using a cell proliferation kit (CAS 11465007001). 3-[4,5-Dimethylthiazole-2-yl]-2,5-diphenyltetrazolium bromide (MTT) was solubilized in PBS (5 mg/mL) and filter-sterilized (0.22-μm). Cocultures of colonocytes were grown in phenol red-free complete media in 24-well plates to ca. 50% confluency. […] The absorbance (OD590) in each well was read, and % viability was calculated against the control (Figure S6, SI).

With C[C@H](NC(=O)[C@@H](N)Cc1ccc(F)cc1)C(=O)N[C@@H](Cc1c[nH]cn1)C(=O)N[C@@H](Cc1c[nH]c2ccccc12)C(N)=O [p-F-Phe-Ala-His-Trp] (H-[Phe(4-F)]AHW-NH2) the “effect on colonocyte viability” value was “no significant (p > 0.05) effect and ns”.
